Measurements: article PMC12040169 (PLOS Biology, 2025)

Assay: in vitro
Details: human, hela cells, % viability

Structure (SMILES) | viability at 28.5 h, 10 µM [%] | viability at 28.5 h, 10 µM (bulk resorufin, single well) [%]
NC(=O)N/N=C/COc1cccc(C(F)(F)F)c1 [CBK022736] | 102 | –
CCN1CC2(CCC1=O)CCN(Cc1cccc(CCN)c1)CC2 [CBK306823] | 100 | –
CC(=O)NC(c1ccccn1)C1CCCN(C(=O)C(C)(C)C)C1 (centres unmarked) [CBK285101] | 91.6 | –
COc1ccc(CC(=O)N2CCC[C@@H](N)[C@@H]2c2ccccc2F)cc1 [CBK283456] | 102 | –
Cc1cccc(C)c1N1C(=O)c2ccccc2NC12C(=O)Nc1ccc([N+](=O)[O-])cc12 (centres unmarked) [CBK103749] | 80.6 | –
c1ccc(CCN2CCCN(c3ccnc(OCCN4CCOCC4)n3)CC2)nc1 [CBK083813] | 94.9 | –
O=C(Nc1nc(-c2ccccc2)ns1)c1ccncc1 [CBK113234] | 81.6 | –
COc1ncccc1CNc1ncnc2c1cnn2CCO [CBK305980] | 116 | –
O=C(c1ccccc1)c1ccc(S(=O)(=O)N2CCCN(Cc3c[nH]nc3-c3ccccc3)CC2)cc1 [CBK062773] | 85.1 | –
CC(Sc1ccc(Cl)cc1)C(=O)Nc1ccc(S(=O)(=O)Nc2ccc(Cl)cc2)cc1 (centres unmarked) [CBK264805] | 97.9 | –
Cc1ccc(C2CC(c3cccnc3)Nc3nnnn32)cc1 (centres unmarked) [CBK288067] | 97.9 | –
CC(C(=O)N1CCC(c2cc3cccnc3[nH]2)CC1)N1CCCC1=O (centres unmarked) [CBK282705] | 105 | –
O=C1COc2ccccc2C/C=C/CC2(CCN(C(=O)c3n[nH]c4c3CCC4)CC2)CN1 [CBK292019] | 111 | –
CCN(CC)CCn1c(NC(=O)CCC2CCNC2)nc2ccccc21 (centres unmarked) [CBK304693] | 92.3 | –
COc1ccc(C2(C)NC(=O)N(CC(=O)Nc3ccc(NC(C)=O)cc3)C2=O)cc1 (centres unmarked) [CBK295182] | 106 | –
CC(C)N(C(=O)c1ccccc1-c1cnc2cccnn12)C(C)C [CBK306900] | 97.8 | –
O=C(Nc1nc2n(n1)C(c1ccc(F)cc1)CC(c1ccccc1)N2)c1cccnc1 (centres unmarked) [CBK267953] | 88.9 | –
CC(C)(C)OC(=O)NCC(N)=S [CBK007979] | 100 | –
O=C(N[C@@H](Cn1cc(Cl)c(=O)[nH]c1=O)C(=O)O)C1CCCCC1 [CBK289648] | 98.7 | –
COc1cc(OC)c(OC)cc1CN1CCN(Cc2ccco2)CC1 [CBK074509G] | 92.9 | –
O=[N+]([O-])c1ccccc1CN1C[C@H](O)C[C@H]1c1nc(-c2ccncc2)no1 [CBK288839] | 91.2 | –
CCC(=O)Nc1ccc(-c2csc(N3CCCC(C)C3)n2)cc1 (centres unmarked) [CBK306478] | 83.3 | –
O=[N+]([O-])c1ccccc1CN1CCN(Cc2cccc(Oc3ccccc3)c2)CC1 [CBK264307] | 91.3 | –

Structure (SMILES) | viability at 28.5 h, 10 µM [%] | viability at 28.5 h, 10 µM (bulk resorufin, single well) [%]
CCn1c(=O)n(CC(=O)NCc2cccs2)c2cccnc21 [CBK283811] | 88.3 | –
Cc1cc(C)c2c(CC(=O)N(C)CCN(C)C)coc2c1 [CBK282174] | 106 | –
CN(C)CCNC(=O)CSc1ccccc1 [CBK268426] | 98.6 | –
CN1C2CCC1CC(OC(=O)CCN1CCCC1)C2 (centres unmarked) [CBK261466] | 95.3 | –
Cc1cc2cc(C(=O)NCC3(N(C)C)CCN(C)CC3)ccc2o1 [CBK282623] | 90.2 | –
CCCOCCCn1ccc2nc(OC)c(C#N)cc2c1=O [CBK307162] | 88 | –
CC(C)c1ccc(/C=C/C(=O)NCc2cccs2)cc1 [CBK149587] | 100 | –
CCOc1ccc(NCCCCO)cc1 [CBK264386] | 92 | –
O=C(O)CCN1CCn2c3c(c4cc(C5CCCCC5)ccc42)CCCC31 (centres unmarked) [CBK263236] | 91.4 | –
CN1C2CCCC1CC(OC(=O)c1cccc3nc[nH]c13)C2 (centres unmarked) [CBK090162] | 99.3 | –
Cc1ccc(-c2cnc3ccccc3n2)cc1NC(=O)c1ccccc1S(=O)(=O)c1ccc([N+](=O)[O-])cc1 [CBK267690] | 110 | –
COc1ccc(C(=O)OC(C)(C)C)c(-c2cncc(NC3CCC(N)CC3)n2)c1 (centres unmarked) [CBK037922] | 109 | –
Cc1ccc(-c2csc3nc(SCC(=O)NCC4CCCO4)n(-c4ccccc4)c(=O)c23)cc1 (centres unmarked) [CBK265610] | 82.6 | –
Cn1ccnc1C1CCN(C(=O)NCc2cccc(F)c2)CC1 [CBK304606] | 91.3 | –
COCCNc1nccnc1-c1ccccc1F [CBK038044] | 97.6 | –
COc1ccc2[nH]c3c(c2c1)CCN(C(=O)CNCC(=O)O)C31CCN(CCOc2ccccc2)C1 (centres unmarked) [CBK082782T] | 114 | –
COc1ccc(C(C)C)cc1-c1cnc(N)c(Nc2ccc3[nH]ccc3c2)n1 [CBK063827] | 97.1 | –
Cc1nc2c(c(=O)[nH]1)CCN(Cc1ccc(Cl)c(Cl)c1)C2 [CBK283969] | 81.6 | –
CC(C)(C)C(=O)Nc1ccc(S(=O)(=O)NC2CCCCC2)cc1 [CBK268783] | 118 | –
Cc1cccnc1C(NC(=O)C1CCN(CCCN2C(=O)CC3CCCCC3C2=O)CC1)c1ccc(F)cc1 (centres unmarked) [CBK147910] | 91.2 | –
OC(COCc1ccco1)CN1CCc2sccc2C1C1CC1 (centres unmarked) [CBK305167] | 119 | –
COCc1nc(NCCCn2c(C)cccc2=O)cc(C2CCOC2)n1 (centres unmarked) [CBK306845] | 90.9 | –
OCCNc1cncc(-c2ccccc2)n1 [CBK065857] | 92 | –

Structure (SMILES) | viability at 28.5 h, 10 µM [%] | viability at 28.5 h, 10 µM (bulk resorufin, single well) [%]
COc1ccc(-c2ccccc2)cc1CN(Cc1ccc2c(c1)OCO2)CC(C)O (centres unmarked) [CBK286471] | 89.7 | –
O=C1CC(Cl)Sc2sc3ccccc3c21 (centres unmarked) [CBK006551] | 86.6 | –
Cc1nc2c(c(=O)[nH]1)CC[C@@H]1CN(C(=O)Cc3ccsc3)C[C@H]21 [CBK284411] | 83.5 | –
COCC(=O)NC[C@H]1C[C@@H]2CCN1C[C@@H]2c1cc(-c2ccccc2)nc(C)n1 [CBK289123] | 89.3 | –
Cc1nn(-c2nc3ccccc3s2)c(O)c1C [CBK270254] | 87.8 | –
O=C(O)c1ccccc1-c1ccccc1C(=O)Nc1ccccc1-c1ccccc1 [CBK262843] | 84.4 | –
CC1=C[C@@H](CNC(=O)c2ccccn2)[C@H](C(C)C)C[C@H]1CC(=O)N1CCCC1 [CBK289207] | 86.5 | –
CC(C)Nc1cc(Sc2ccc(F)cc2)ncn1 [CBK089498] | 94.2 | –
O=C(CSc1nnc(C2CC2)o1)Nc1ccc(CN2CCOCC2)cc1 [CBK305015] | 86 | –
COc1ccc(C(=O)c2sc3nc(C)cc(C)c3c2N)cc1 [CBK115362] | 87.7 | –
O=C(Cn1c(-c2ccccn2)nc2ccccc21)NCCN1CCOCC1 [CBK267214] | 95 | –
COc1cccc(OC)c1-c1cn2ccnc2c(NCCc2ccccn2)n1 [CBK066173] | 109 | –
Cc1ncsc1CCOc1ccc(C(F)(F)F)cn1 [CBK115790] | 101 | –
Cc1c(NC(=O)C2CCN(c3ccccc3Cl)C2)nnn1C (centres unmarked) [CBK306263] | 90.7 | –
COCc1cccc(-c2ncc(OCC3COc4ccccc4O3)nc2N)c1 (centres unmarked) [CBK145113] | 93.1 | –
CC(=O)NCCNC(=O)c1ccc(C)nc1N1CCOCC1 [CBK076453] | 98.6 | –
Cc1ccc2[nH]c(SCC(=O)Nc3cccc(NC(=O)C45CC6CC(CC(C6)C4)C5)c3)nc2c1 [CBK265679] | 96.3 | –
COc1ccc(CN2CCNC(=O)C2CC(=O)O)c(F)c1 (centres unmarked) [CBK270143] | 95.6 | –
CC(C)(C)OC(=O)N[C@@H]1C(=O)OC(C(O)CO)[C@@H]1O (some centres unmarked) [CBK008178] | 118 | –
O=C(Cc1ccc(Cl)cc1)NC(=S)Nc1ccccc1O [CBK263905] | 96.6 | –
COc1ccc(C(=O)Nc2ccc3c(c2)COC2(CCNCC2)O3)c(OC)n1 [CBK091528T] | – | 87.5
Cc1cccc(C(=O)N2CCN(Cc3cc(=O)n4ccsc4n3)CC2)c1 [CBK305037] | 91 | –
COc1ccc(NC(=O)CSc2ncnc3sc(C)cc23)c(OC)c1 [CBK277541] | 100 | –

Structure (SMILES) | viability at 28.5 h, 10 µM [%] | viability at 28.5 h, 10 µM (bulk resorufin, single well) [%]
COc1ccc(CNC(=O)N2CCCCC2CO)cc1OC (centres unmarked) [CBK155981] | 92.8 | –
CN1CCC(N2CCN(C(=O)C3(c4ccccc4)CCCC3)CC2)CC1 [CBK149096] | 99.3 | –
COc1ccc(COc2nccnc2N2CCCC2)cc1OC [CBK116613] | 94.8 | –
NNc1nc(-c2ccc(Br)cc2)nc2ccccc12 [CBK262860] | 94.6 | –
CC1CC(=O)Nc2ccccc2N1C(=O)Cn1c(=O)cnc2ccccc21 (centres unmarked) [CBK297116] | 95 | –
O=C(Cn1c(=O)n(Cc2cccs2)c2ncccc21)NCC1CC1 [CBK283899] | 89.3 | –
NC(=O)C1CCN(C2=NC(=O)/C(=C/c3cn(-c4ccccc4)nc3-c3ccc(F)cc3)S2)CC1 [CBK265175] | 106 | –
CCc1cc2c(=O)c(-c3cnn(-c4ccccc4)c3)c(C(F)(F)F)oc2c(CN2CCCCC2)c1O [CBK264458] | 91.7 | –
O=C(NC(c1ccc(F)cc1)c1cccs1)c1ccccn1 (centres unmarked) [CBK295636] | 106 | –
Cn1ccnc1C1(O)CC2CCC(C1)N2C(=O)c1cccc(F)c1 (centres unmarked) [CBK284089] | 93.9 | –
CCCCCn1c(-c2ccccc2)n[nH]c1=O [CBK013288] | 83.3 | –
CSc1nc(NC(=O)Cc2c[nH]c3ccccc23)cc(N2CCNCC2)n1 [CBK050265T] | 84.4 | –
COc1ccccc1CC(=O)N[C@@H]1CCN(Cc2cccnc2)C[C@H]1O [CBK307200] | 100 | –
O=C(O)CCCn1cc(NC(=O)c2cccc(F)c2)cn1 [CBK270051] | 91.4 | –
COc1ccc(-c2nccnc2NCCCN(C)C)cc1 [CBK037671] | 93.9 | –
COc1cc2c(cc1CN(Cc1ccc3c(c1)OCO3)CC(C)O)CCC2 (centres unmarked) [CBK286473] | 91.6 | –
Cc1[nH]c2c(Cl)cc(Cl)cc2c1CCN [CBK070893] | – | 103
CC(=O)N1c2ccc(-c3cc4ccccn4c3)cc2CC1C (centres unmarked) [CBK285254] | 79.9 | –
CS(=O)(=O)c1ccc(-c2ccc3c(c2)COC(C2CCN(C(=O)OCc4ccccc4)CC2)O3)cc1 (centres unmarked) [CBK144643] | 87.9 | –
CCC(CC)CNc1ncnc2ccc(S(C)(=O)=O)cc12 [CBK306495] | 90.9 | –
